Source: US10752900B2, “Oligonucleotides for modulating gene expression and uses thereof” (BIOGENERA S.P.A., priority 2012, dated 2020)

Legend:
RD = test: Cellular proliferation, RD cells; type: cell-based; details: Table 11, MYC-directed PNA, 2.5 μM
Experimental: (§1) For this purpose 5×10^3 cells per well were seeded into 96-well cell culture plates (experiments conducted in triplicate) with 100 μl of OPTI-MEM (GIBCO BRL) medium containing 4% FBS and 2 mM of L-glutammine.
(§2) Cell viability was assessed by means of an ATP-Lite assay (Luminescence ATP Detection Assay System, PerkinElmer) and is reported as the ratio between the average signal of the treated wells compared to the average value of the wells of untreated control cells. The cells were processed following the instructions provided with the kit.
(§3) The oligonucleotides were tested in vitro (at a concentration of 2.5 μM) to determine their ability to inhibit the transcription of the gene they are directed against by measuring the levels of the gene messenger in cellular models in which the gene of interest is overexpressed. The methods used are the ones described in example 1.
(§4) In particular, SEQ ID NO: 66-69 (directed against MYCN) were tested in vitro in the Kelly and H69 cell lines; SEQ ID NO: 70-74 (directed against MYC) were tested in vitro in the H82 and RD cell lines, SEQ ID NO: 75, 76 (directed against BIRC5) were tested in vitro in the Kelly cell line, SEQ ID NO: 77-79 (directed against ALK) were tested in vitro in the Kelly cell line, SEQ ID NO: 80-82 (directed against BCL2) were tested in vitro in the Kelly cell line and SEQ ID NO: 83, 84 (directed against PLK4) were tested in vitro in the Kelly cell line.
(§5) The ability of the tested oligonucleotides to inhibit the messenger of the gene of interest was measured and the proliferative capacity of the cells following administration of the oligonucleotides was also assessed.

MYC [1] = test: QT-PCR, MYC mRNA in RD cells; type: cell-based; details: Table 11, 2.5 μM
Experimental: (§6) For the purpose of assessing the ability of the oligonucleotides of the present invention to modulate the expression of the target genes, their ability to reduce the quantity of messenger RNA was analyzed using the Real-Time PCR technique.
(§7) The cells were treated with the oligonucleotides, adding FBS up to 4% 6 hours after administration of the same. After 24 hours the total RNA was extracted from each well and purified using the RNeasy Mini Kit (QIAGEN).
(§8) As a control, use was made of the same cell lines as listed above treated with sterile water instead of oligonucleotides. Each RNA sample was quantified (in duplicate) using a NanoDrop ND-1000 spectrophotometer (NanoDrop Technologies). The first strand of cDNA was produced using the cDNA Synthesis Kit for RT-PCR (Roche). For the cDNA synthesis reaction a total of 1 μg of RNA was used. For the real-time PCR, 10 ng of cDNA in a final volume of 20 μl was used with SYBR Green Master Mix 2× (Applied Biosystems) (3 identical experiments were conducted in triplicate). Two housekeeping genes were used as positive controls: GAPDH and beta-actin (ACTB).
(§9) The conditions of the QT-PCR reaction were: 10 min at 95° C., 20 sec at 95° C., and 30 sec at 60° C., for 50 cycles.
as §3, §4, §5

H82 = test: Cellular proliferation, H82 cells; type: cell-based; details: Table 11, MYC-directed PNA, 2.5 μM
Experimental: as §1, §2, §3, §4, §5

MYC [2] = test: QT-PCR, MYC mRNA in H82 cells; type: cell-based; details: Table 11, 2.5 μM
Experimental: as §6, §7, §8, §9, §3, §4, §5

BIRC5 = test: QT-PCR, BIRC5 mRNA in Kelly cells; type: cell-based, human; details: Table 11, 2.5 μM
Experimental: as §6, §7
as §8, with “(ACTB). […]” for “(ACTB).”
as §5

Kelly cells = test: Cellular proliferation assay (ATP-Lite), Kelly cells; type: cell-based, human; details: 2.5 μM
Experimental: For the purpose of assessing the gene modulation ability of the oligonucleotides of the present invention, the effect of their administration on cell viability was determined.
as §1
The PNA oligonucleotides were administered at different concentrations (1 μM-2.5 μM-5 μM-10 μM) in order to observe a dose-effect relationship.
As regards all the other oligonucleotides, the concentrations at which they administered are listed in the paragraph:
The viability of the treated cells was determined at 48, 72, 96 and 168 hours after treatment.
as §2
The assays were performed on the same cell lines used to determine the levels of the MYCN gene messenger and listed in the paragraph: Treatments with Oligonucleotides—QT-PCR.
As far as the PNA oligonucleotides are concerned, the results regarding their ability to inhibit the transcription of the MYCN gene and proliferation of Kelly cells are shown in Table 1.
as §5

ALK = test: QT-PCR, ALK mRNA in Kelly cells; type: cell-based, human; details: Table 11, 2.5 μM
Experimental: as §6, §7, §8, §9
as §3, with “1. […]” for “1.”
as §5

BCL2 = test: QT-PCR, BCL2 mRNA in Kelly cells; type: cell-based, human; details: Table 11, 2.5 μM
Experimental: as §6, §7, §8, §9
as §3, with “1. […]” for “1.”
as §5

PLK4 = test: QT-PCR, PLK4 mRNA in Kelly cells; type: cell-based, human; details: Table 11; PLKA4, Kelly cells; 2.5 μM
Experimental: as §6, §7
as §8, with “(ACTB). […]” for “(ACTB).”
as §5

Row | Substance | Cell Prolif. (%) (RD) | mRNA inhibit. (%) (MYC [1]) | Cell Prolif. (%) (H82) | mRNA inhibit. (%) (MYC [2]) | further results
1 | SEQ ID NO: 70: PNA CTCAGAGGCTTGGCGG directed against MYC (all peptide nucleic acid (PNA); antigene PNA) | 73 | 34 | 79 | 43 | –
2 | SEQ ID NO: 71: PNA GCGGCCGGCTAGGGTG directed against MYC (all peptide nucleic acid (PNA); antigene PNA) | 65 | 42 | 75 | 46 | –
3 | SEQ ID NO: 72: PNA CGGCCGGCTAGGGTGG directed against MYC (all peptide nucleic acid (PNA); antigene PNA) | 53 | 58 | 64 | 52 | –
4 | SEQ ID NO: 73: PNA CGACGGCGGTGGCGGG directed against MYC (all peptide nucleic acid (PNA); antigene PNA) | 51 | 59 | 65 | 56 | –
5 | SEQ ID NO: 74: PNA GGACGGGGGCGGTGGA directed against MYC (all peptide nucleic acid (PNA); antigene PNA) | 47 | 64 | 61 | 61 | –
6 | SEQ ID NO: 75: PNA GCGGCGGCATGGGTGC directed against BIRC5 (all peptide nucleic acid (PNA); antigene PNA) | – | – | – | – | mRNA inhibit. (%) (BIRC5): 69%; Cell Prolif. (%) (Kelly cells; Table 11, BIRC5-directed PNA): 43%
7 | SEQ ID NO: 76: PNA GGCGGCGGCATGGGTG directed against BIRC5 (all peptide nucleic acid (PNA); antigene PNA) | – | – | – | – | mRNA inhibit. (%) (BIRC5): 78%; Cell Prolif. (%) (Kelly cells; Table 11, BIRC5-directed PNA): 35%
8 | SEQ ID NO: 77: PNA GCAGGAGAGGACGGTA directed against ALK (all peptide nucleic acid (PNA); antigene PNA) | – | – | – | – | mRNA inhibit. (%) (ALK): 57%; Cell Prolif. (%) (Kelly cells; Table 11, ALK-directed PNA): 55%
9 | SEQ ID NO: 78: PNA CAGGAGAGGACGGTAC directed against ALK (all peptide nucleic acid (PNA); antigene PNA) | – | – | – | – | mRNA inhibit. (%) (ALK): 68%; Cell Prolif. (%) (Kelly cells; Table 11, ALK-directed PNA): 46%
10 | SEQ ID NO: 79: PNA GGCAGGAGAGGACGGT directed against ALK (all peptide nucleic acid (PNA); antigene PNA) | – | – | – | – | mRNA inhibit. (%) (ALK): 79%; Cell Prolif. (%) (Kelly cells; Table 11, ALK-directed PNA): 39%
11 | SEQ ID NO: 80: PNA GGATGGCGCACGCTGG directed against BCL2 (all peptide nucleic acid (PNA); antigene PNA) | – | – | – | – | mRNA inhibit. (%) (BCL2): 59%; Cell Prolif. (%) (Kelly cells; Table 11, BCL2-directed PNA): 62%
12 | SEQ ID NO: 81: PNA GGGAAGGATGGCGCAC directed against BCL2 (all peptide nucleic acid (PNA); antigene PNA) | – | – | – | – | mRNA inhibit. (%) (BCL2): 62%; Cell Prolif. (%) (Kelly cells; Table 11, BCL2-directed PNA): 58%
13 | SEQ ID NO: 82: PNA CCACGGTGGTGGAGGA directed against BCL2 (all peptide nucleic acid (PNA); antigene PNA) | – | – | – | – | mRNA inhibit. (%) (BCL2): 68%; Cell Prolif. (%) (Kelly cells; Table 11, BCL2-directed PNA): 55%
14 | SEQ ID NO: 83: PNA ACGGCAAGCGGCGGGA directed against PLK4 (all peptide nucleic acid (PNA); antigene PNA) | – | – | – | – | Cell Prolif. (%) (Kelly cells; Table 11, PLK4-directed PNA): 59%; mRNA inhibit. (%) (PLK4): 62%
15 | SEQ ID NO: 84: PNA GGACGGCAAGCGGCGG directed against PLK4 (all peptide nucleic acid (PNA); antigene PNA) | – | – | – | – | Cell Prolif. (%) (Kelly cells; Table 11, PLK4-directed PNA): 49%; mRNA inhibit. (%) (PLK4): 74%
